ChEMBL document CHEMBL1201862, “PubChem BioAssay data set” (2004)
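Test compounds were applied to cells in 96-well plates for 48 hours at 5 doses. At the GI50, growth is halved.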 Activity calls are given as the source filed them. Cut-off read from the data, not from the text of the source: active = GI50 up to about 1.1 µM and inactive = higher.

Key:
Assay in all cases: DTP human tumour cell line panel, 48 h
786-0 = test system: 786-0
A498 = test system: A498
BT-549 = test system: BT-549
COLO 205 = test system: COLO 205
HCT-116 = test system: HCT-116
HOP-92 = test system: HOP-92
M14 = test system: M14
MCF7 = test system: MCF7
MOLT-4 = test system: MOLT-4
Malme-3M = test system: Malme-3M
NCI-H522 = test system: NCI-H522
OVCAR-8 = test system: OVCAR-8
RXF 393 = test system: RXF 393
SF-295 = test system: SF-295
SK-OV-3 = test system: SK-OV-3
SNB-19 = test system: SNB-19
SNB-75 = test system: SNB-75
SW-620 = test system: SW-620
TK-10 = test system: TK-10
UACC-62 = test system: UACC-62

Q: With `C[C@H]1C2Cc3cc(N)ccc3[C@@]1(C)CCN2CCc1ccccc1` as the compound, how does the GI50 (786-0) read?
A: 49.9 µM (inactive)

Q: What about the GI50 (A498) of the same compound?
A: 29.4 µM (inactive)

Q: What about the GI50 (BT-549) of the same compound?
A: > 100 µM (inactive)

Q: And the GI50 (COLO 205)?
A: 16.8 µM (inactive)

Q: And the GI50 (HCT-116)?
A: 41.8 µM (inactive)

Q: And the GI50 (HOP-92)?
A: 21.4 µM (inactive)

Q: And the GI50 (M14)?
A: 20.9 µM (inactive)

Q: And the GI50 (MCF7)?
A: 25.2 µM (inactive)

Q: What about the GI50 (MOLT-4) of the same compound?
A: 20.4 µM (inactive)

Q: What about the GI50 (Malme-3M) of the same compound?
A: 17.7 µM (inactive)

Q: And the GI50 (NCI-H522)?
A: 13.2 µM (inactive)

Q: And the GI50 (OVCAR-8)?
A: 62.5 µM (inactive)

Q: What about the GI50 (RXF 393) of the same compound?
A: 33.3 µM (inactive)

Q: And the GI50 (SF-295)?
A: 27.4 µM (inactive)

Q: And the GI50 (SK-OV-3)?
A: 24 µM (inactive)

Q: And the GI50 (SNB-19)?
A: > 100 µM (inactive)

Q: And the GI50 (SNB-75)?
A: 85.1 µM (inactive)

Q: What about the GI50 (SW-620) of the same compound?
A: 64.7 µM (inactive)

Q: And the GI50 (TK-10)?
A: 78 µM (inactive)

Q: What about the GI50 (UACC-62) of the same compound?
A: 45.5 µM (inactive)

Q: Which results are given for `CCOC(=O)/C=C(/C(=O)OCC)n1cc(Cl)c(=O)n(CC(=O)OCC)c1=O`?
A: GI50 (786-0): 0.828 µM (active); GI50 (A498): 17.5 µM (inactive); GI50 (BT-549): 5.92 µM (inactive); GI50 (COLO 205): 0.787 µM (active); GI50 (HCT-116): 4.97 µM (inactive); GI50 (HOP-92): 5.15 µM (inactive); GI50 (M14): 4.57 µM (inactive); GI50 (MCF7): 22.9 µM (inactive); GI50 (MOLT-4): 1.15 µM (inactive); GI50 (Malme-3M): 6.11 µM (inactive); GI50 (NCI-H522): 1.45 µM (inactive); GI50 (OVCAR-8): 4.53 µM (inactive); GI50 (RXF 393): 4.57 µM (inactive); GI50 (SF-295): > 25 µM (inactive); GI50 (SK-OV-3): > 25 µM (inactive); GI50 (SNB-19): > 25 µM (inactive); GI50 (SNB-75): 5.13 µM (inactive); GI50 (SW-620): 0.995 µM (active); GI50 (TK-10): 4.14 µM (inactive); GI50 (UACC-62): 4.53 µM (inactive)

Q: For `O=C(NCCO)c1c(O)c2ccccc2[nH]c1=O`, which GI50 (786-0) is on record?
A: > 100 µM (inactive)

Q: And the GI50 (A498)?
A: > 100 µM (inactive)

Q: What about the GI50 (BT-549) of the same compound?
A: > 100 µM (inactive)

Q: What about the GI50 (COLO 205) of the same compound?
A: > 100 µM (inactive)

Q: And the GI50 (HCT-116)?
A: > 100 µM (inactive)

Q: What about the GI50 (HOP-92) of the same compound?
A: > 100 µM (inactive)

Q: What about the GI50 (MCF7) of the same compound?
A: > 100 µM (inactive)

Q: And the GI50 (MOLT-4)?
A: > 100 µM (inactive)

Q: What about the GI50 (Malme-3M) of the same compound?
A: > 100 µM (inactive)

Q: And the GI50 (NCI-H522)?
A: > 100 µM (inactive)

Q: And the GI50 (OVCAR-8)?
A: > 100 µM (inactive)

Q: What about the GI50 (RXF 393) of the same compound?
A: > 100 µM (inactive)

Q: And the GI50 (SF-295)?
A: > 100 µM (inactive)

Q: And the GI50 (SNB-19)?
A: > 100 µM (inactive)

Q: And the GI50 (SNB-75)?
A: > 100 µM (inactive)

Q: What about the GI50 (SW-620) of the same compound?
A: > 100 µM (inactive)

Q: And the GI50 (TK-10)?
A: > 100 µM (inactive)

Q: What does the source list for `Cc1[nH]n(C2=NCCN2)c(=O)c1C`?
A: GI50 (786-0): > 100 µM (inactive); GI50 (A498): > 100 µM (inactive); GI50 (BT-549): > 100 µM (inactive); GI50 (COLO 205): > 100 µM (inactive); GI50 (HCT-116): > 100 µM (inactive); GI50 (HOP-92): > 100 µM (inactive); GI50 (M14): > 100 µM (inactive); GI50 (MCF7): > 100 µM (inactive); GI50 (MOLT-4): > 100 µM (inactive); GI50 (Malme-3M): > 100 µM (inactive); GI50 (NCI-H522): > 100 µM (inactive); GI50 (OVCAR-8): > 100 µM (inactive); GI50 (RXF 393): > 100 µM (inactive); GI50 (SF-295): > 100 µM (inactive); GI50 (SK-OV-3): > 100 µM (inactive); GI50 (SNB-19): > 100 µM (inactive); GI50 (SNB-75): 89.5 µM (inactive); GI50 (SW-620): > 100 µM (inactive); GI50 (TK-10): > 100 µM (inactive); GI50 (UACC-62): > 100 µM (inactive)

Q: Which GI50 (786-0) does the source give for `C=CC(C)(C)NC(C(=O)N1CCC[C@H]1c1nc(-c2nc(C(=O)OCC=C(C)C)c(C)o2)c(C)o1)C(C)C` (some centres not stated) here?
A: > 58.1 µM (inactive)

Q: And the GI50 (A498)?
A: 47.1 µM (inactive)

Q: What about the GI50 (BT-549) of the same compound?
A: > 100 µM (inactive)

Q: What about the GI50 (COLO 205) of the same compound?
A: 34 µM (inactive)

Q: And the GI50 (HCT-116)?
A: > 60.7 µM (inactive)

Q: What about the GI50 (HOP-92) of the same compound?
A: 23.3 µM (inactive)

Q: What about the GI50 (M14) of the same compound?
A: > 62.2 µM (inactive)

Q: What about the GI50 (MCF7) of the same compound?
A: > 53.8 µM (inactive)

Q: And the GI50 (MOLT-4)?
A: 47.5 µM (inactive)

Q: What about the GI50 (Malme-3M) of the same compound?
A: > 100 µM (inactive)

Q: What about the GI50 (NCI-H522) of the same compound?
A: > 100 µM (inactive)

Q: What about the GI50 (OVCAR-8) of the same compound?
A: > 58.6 µM (inactive)

Q: What about the GI50 (RXF 393) of the same compound?
A: > 55.2 µM (inactive)

Q: What about the GI50 (SF-295) of the same compound?
A: > 50 µM (inactive)

Q: And the GI50 (SK-OV-3)?
A: > 83 µM (inactive)

Q: What about the GI50 (SNB-19) of the same compound?
A: > 48.6 µM (inactive)

Q: What about the GI50 (SNB-75) of the same compound?
A: 33.3 µM (inactive)

Q: What about the GI50 (SW-620) of the same compound?
A: 45.8 µM (inactive)

Q: What about the GI50 (TK-10) of the same compound?
A: > 57.8 µM (inactive)

Q: And the GI50 (UACC-62)?
A: 37.8 µM (inactive)
